The text below walks through data of paper PMC12477080, “Polychlorinated biphenyls (PCBs) interact with drug metabolism in vivo” (Archives of Toxicology, 2025).

Data set [1] has as its target T1, HEK293 cells overexpressing CYP1A2 (Homo sapiens, UniProt P05177).
T1 construct: expressed in transfected cells; host or cells: HEK293
T1 sequence (P05177 1-516): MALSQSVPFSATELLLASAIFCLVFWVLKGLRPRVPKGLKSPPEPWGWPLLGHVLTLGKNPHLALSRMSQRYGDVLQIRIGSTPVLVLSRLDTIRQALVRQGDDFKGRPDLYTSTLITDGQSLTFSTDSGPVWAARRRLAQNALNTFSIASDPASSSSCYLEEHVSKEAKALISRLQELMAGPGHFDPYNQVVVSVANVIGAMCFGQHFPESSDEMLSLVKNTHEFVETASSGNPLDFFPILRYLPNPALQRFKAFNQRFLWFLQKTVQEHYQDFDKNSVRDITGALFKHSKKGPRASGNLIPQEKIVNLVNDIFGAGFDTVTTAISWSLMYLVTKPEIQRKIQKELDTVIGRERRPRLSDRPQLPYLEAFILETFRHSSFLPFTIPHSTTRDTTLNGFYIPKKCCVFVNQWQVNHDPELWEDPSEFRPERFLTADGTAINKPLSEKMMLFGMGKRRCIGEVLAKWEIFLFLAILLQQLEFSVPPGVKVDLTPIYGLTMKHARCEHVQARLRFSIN
The experiment in a line: CYP1A2 activity in transgenic HEK293 cells (phenacetin probe). The format is cell-based. The following applies: 0.1, 0.5, 1 µM PCB118, 30 min, then 10 µM phenacetin 1 h.

Data set [2] has as its system CYP2D6. Nature of the data set: CYP phenotyping cocktail clinical study: metoprolol/α-OH-metoprolol metabolic ratio and its association with PCB plasma levels. The following applies: linear regression of MR AUC0–8 h α-OH-metoprolol/metoprolol (CYP2D6 activity) on PCB plasma concentration. On the procedure: (§1) The participants were ascertained not to have any acute disease by medical history, physical examination, laboratory screening, including hematological and biochemical blood tests, and a 12-lead electrocardiogram. […] The demographic data of the subjects are summarized in Table 1 in the supplemental data. At the enrollment visit, 2 blood samples (9 ml each) were collected into ethylenediaminetetraacetic acid (EDTA)-containing tubes taken from each subject for analyzing the plasma concentrations of PCB congeners and for pharmacogenetic analysis.
(§2) Participants stayed fasted from the evening before until 3 h after drug administration. After that, a meal was provided. Water and juice were permitted but alcoholic and caffeinated beverages were not allowed from the evening before drug administration until the last blood sample was taken on the next day. Venous blood samples (9 ml each) were collected through an intravenous catheter immediately before and 0.25, 0.5, 0.75, 1, 1.5, 2, 2.5, 3, 4, 5, 6, 7, 8, and 24 h after drug administration. Blood was drawn into EDTA-coated tubes, centrifuged at 1500 g for 10 min at 4 °C, and plasma samples were subsequently stored at − 80 °C until further analysis. After completely voiding the bladder immediately before drug administration, the participants collected urine from 0 to 24 h after drug administration. After weighing the collected urine, a 10 ml aliquot of each fraction was taken.
(§3) Commercially sourced standards and internal standards were used for quantification (see Supplemental Materials). In brief, 20 µl of the plasma samples were protein-precipitated with 80 µl methanol containing all internal standards or were treated for 16 h at 37 °C with 2 µl β-glucuronidase (1,000,000 Units) for deconjugation before protein precipitation with 78 µl methanol containing internal standards. Samples were centrifuged for 20 min, at 4 °C and 17,000 × g, and 40 µl of the supernatants were diluted with 40 µl LC–MS grade water, centrifuged again for 5 min at 4 °C and 17,000 × g and 50 µl supernatant were transferred to LC–MS vials 5 µl of the samples were injected into the LC–MS system.
(§4) An Agilent 1290 Infinity II UHPLC coupled with a SCIEX QTRAP6500 + triple quadrupole mass spectrometer was used. Chromatographic separation was achieved on an Agilent Poroshell 120 EC-C18 (1.9 µm, 2.1 × 50 mm) column with A: 0.1% formic acid in water and B: methanol with a flow rate of 0.7 ml/min and a total run time of 8.5 min. Analytes were eluted using a gradient program. The following gradient steps represent gradual changes in % B over time: 5% B from 0 to 0.2 min, 30% B at 2 min, 34% B at 4.8 min, 95% B at 6.5 min, 95% B at 7.5 min and re-equilibrating to 5% B at 7.7 min and 5%B till 8.5 min. A representative chromatogram is shown in supplemental Fig. 2. The scheduled MRM mode was applied for analyte detection in both positive and negative ESI modes (Supplementary Table 4). Calibration curves were constructed with linear regression using weighted (1/x^2) models (detailed information in supplemental methods).
(§5) Partial areas under the plasma concentration–time curves from 0 to 3 h (AUC0–3 h), from 0 to 4 h (AUC0–4 h), and from 0 to 8 h (AUC0–8 h) were calculated based on measured concentrations by the linear trapezoidal rule without extrapolation. […] Metabolic ratios (MR) were calculated by dividing the partial AUC of the metabolite by the respective partial AUC of the parent drug. The MRs were used as biomarkers for the individual CYP activities of the study subjects.

Data set [3] concerns CYP1A2. Nature of the data set: CYP phenotyping cocktail clinical study: caffeine/paraxanthine metabolic ratio and its association with PCB plasma levels. On the procedure: as §1, §2, §3
An Agilent 1290 Infinity II UHPLC coupled with a SCIEX QTRAP6500 + triple quadrupole mass spectrometer was used. […]
Partial areas under the plasma concentration–time curves from 0 to 3 h (AUC0–3 h), from 0 to 4 h (AUC0–4 h), and from 0 to 8 h (AUC0–8 h) were calculated based on measured concentrations by the linear trapezoidal rule without extrapolation. […] Metabolic ratios (MR) were calculated by dividing the partial AUC of the metabolite by the respective partial AUC of the parent drug. […]

In data set [4] the target is T2, recombinant CYP1A2 (Homo sapiens, UniProt P05177).
T2 construct: purchased Promega, Madison, WI, USA
T2 sequence (P05177 1-516): T1 sequence (P05177 1-516)
Nature of the data set: Luciferase-based P450-Glo enzyme assay with recombinant CYP1A2. The format is biochemical. The following applies: PCB118 1–10 µM; Luciferin–ME substrate; significant at highest concentration (p < 0.0001).

In data set [5] the test system is CYP2C9. The experiment in a line: CYP phenotyping cocktail clinical study: torsemide/OH-torsemide metabolic ratio and its association with PCB plasma levels. As to conditions: linear regression of MR AUC0–8 h OH-torsemide/torsemide (CYP2C9 activity) on PCB plasma concentration. On the procedure:
as §1, §2, §3, §4, §5

Data set [6] is described as follows: Determination of PCB concentrations in plasma of HELPcB and control participants. The format is in vivo. The following applies: human plasma.

Each structure is given as a SMILES string.

Turning to `Clc1ccc(-c2cc(Cl)c(Cl)cc2Cl)cc1Cl` [PCB118], in data set [1], the “effect on CYP1A2 activity in HEK293 cells (phenacetin probe)” value is listed as “significantly inhibited CYP1A2 activity in a dose-dependent manner”. Also, the t value is recorded as 2,169 in data set [2], 1,339 in data set [5] and 1,228 in data set [5] (PM excl). The “β (standardized regression coefficient)” value is recorded as 0,455 in data set [2], 0,301 in data set [5] and 0,286 in data set [5] (PM excl). Further, the “association with CYP1A2 activity in hierarchical generalized mixed model” value in data set [3] (adjusted for co-factors (smoking status, gender, BMI, age)) is “became significant when smoking status was included as a co-factor”. For the same molecule, the “proportion of variability in CYP1A2 activity explained” value in data set [3] (linear regression, MR paraxanthine/caffeine on PCB118 plasma concentration) was ~ 15.5%. For the same molecule, the “effect on CYP1A2 enzyme activity (luminescence)” value in data set [4] is recorded as “concentration-dependent inhibitory effect”. Also, the “PCB plasma concentration, Mean [±SD] HELPcB” value in data set [6] (HELPcB (occupationally exposed) group) is 0.122 ± 0.122 ng/mL. The “PCB plasma concentration, Geometric mean, HELPcB” value in data set [6] (HELPcB group, N 10) is 0.075 ng/mL. For the same molecule, the “PCB plasma concentration, Mean [±SD] all” value in data set [6] (all participants) was 0.072 ± 0.099 ng/mL. For the same molecule, in data set [6] (control group (background exposure)), the “PCB plasma concentration, Mean [±SD] control” value worked out at 0.022 ± 0.012 ng/mL. For the same molecule, the “PCB plasma concentration, Geometric mean, Control” value in data set [6] (control group, N 10) amounted to 0.019 ng/mL.
